In general, viability refers to the share of living cells, or the viability signal relative to a control.

This data set is described as follows: Protective ability against MPP^+ induced apoptosis of neurons (WST-1 cell viability). It is filed as cell-based. Conditions: human, MPP^+ 1 mM alone, read-out: Cell viability % compared to control. How it is done:
The following experiment was performed to evaluate the protective ability against apoptosis of neurons caused by MPP^+, a Parkinson's disease-inducing toxicity, in differentiated SH-Sy5y cells (brain neurons) for the Weissella cibaria strains shown in Table 2 above.
Thereafter, the existing medium was removed and replaced with 0.5% fetal bovine serum DMEM medium to which a sample was added at various concentrations. After 4 hours, the cells were treated with MPP^+ neurotoxicity at a concentration of 1 mM and cultured for an additional 44 hours. Thereafter, the medium was treated with the WST-1 solution and cultured for 2 hours to induce a reduction reaction, and then the absorbance was measured at 450 nm using an ELISA microplate reader.
(In general: Formazan colour is commonly taken as a measure of viable cells.)

Consider `C[n+]1ccc(-c2ccccc2)cc1` [MPP^+, 1-methyl-4-phenylpyridinium iodide], for which the viability at 44 h, 1 mM came to 53%.

Values taken from patent US20250032557A1, “Novel Strain Having Antagonism Against Proteus Mirabilis and Excellent Effect on Neurodegenerative Disease, and use Thereof” (METACEN THERAPEUTICS CO., LTD, priority 2021, published 2025).
